ChEMBL document CHEMBL6109039, “Designed and synthesized novel tripeptides targeting diabetes and its related pathologies” (Eur J Med Chem, 2025)

Key:
Albumin [1] = target: T1, Albumin (Homo sapiens, UniProt P02768); assay: Inhibition of D-glucose glycation in human serum albumin model by measuring absorbance at 279 nm incubated for 26 days by UV spectroscopic analysis (reference value: 2.301); details: 624 h, time 26 day
Albumin [2] = target: T1, Albumin; assay: Inhibition of D-fructose glycation in human serum albumin model by measuring absorbance at 279 nm incubated for 7 days by UV spectroscopic analysis (reference value: 1.072); details: 168 h, time 7 day
Albumin [3] = target: T1, Albumin; assay: Inhibition of D-glucose glycation in human serum albumin model by measuring ketoamine moieties incubated for 30 days by Nitroblue tetrazolium (NBT) reduction assay (reference value: 27.85 nmol/mL); details: 720 h, time 30 day
Albumin [4] = target: T1, Albumin; assay: Inhibition of D-fructose glycation in human serum albumin model assessed as reduction in fluorescence intensity incubated for 3 days by UV spectroscopic analysis relative to control; details: 72 h, time 3 day
Albumin [5] = target: T1, Albumin; assay: Inhibition of D-fructose glycation in human serum albumin model by measuring absorbance at 279 nm incubated for 33 days by UV spectroscopic analysis (Rvb =2.222); details: 792 h, time 33 day
Albumin [6] = target: T1, Albumin; assay: Inhibition of D-fructose glycation in human serum albumin model incubated for 14 days by UV spectroscopic analysis relative to control; details: 336 h, time 14 day
Albumin [7] = target: T1, Albumin; assay: Inhibition of D-fructose glycation in human serum albumin model by measuring absorbance at 279 nm incubated for 14 days by UV spectroscopic analysis (reference value: 2.333); details: 336 h, time 14 day
Albumin [8] = target: T1, Albumin; assay: Inhibition of D-glucose glycation in human serum albumin model assessed as reduction in fluorescence intensity incubated for 3 days by UV spectroscopic analysis relative to control; details: 72 h, time 3 day
Albumin [9] = target: T1, Albumin; assay: Inhibition of D-glucose glycation in human serum albumin model by measuring ketoamine moieties incubated for 5 days by Nitroblue tetrazolium (NBT) reduction assay (reference value: 18.58 nmol/mL); details: 120 h, time 5 day
Albumin [10] = target: T1, Albumin; assay: Inhibition of D-fructose glycation in human serum albumin model by measuring ketoamine moieties incubated for 14 days by Nitroblue tetrazolium (NBT) reduction assay (reference value: 129.58 nmol/mL); details: 336 h, time 14 day
Albumin [11] = target: T1, Albumin; assay: Inhibition of D-fructose glycation in human serum albumin model by measuring absorbance at 279 nm incubated for 3 days by UV spectroscopic analysis (reference value: 0.492); details: 72 h, time 3 day
Albumin [12] = target: T1, Albumin; assay: Inhibition of D-fructose glycation in human serum albumin model by measuring absorbance at 279 nm incubated for 26 days by UV spectroscopic analysis (reference value: 2.267); details: 624 h, time 26 day
Albumin [13] = target: T1, Albumin; assay: Inhibition of D-glucose glycation in human serum albumin model by measuring ketoamine moieties incubated for 7 days by Nitroblue tetrazolium (NBT) reduction assay (reference value: 35.92 nmol/mL); details: 168 h, time 7 day
Albumin [14] = target: T1, Albumin; assay: Inhibition of D-glucose glycation in human serum albumin model by measuring absorbance at 279 nm incubated for 30 days by UV spectroscopic analysis (reference value: 2.295); details: 720 h, time 30 day
Albumin [15] = target: T1, Albumin; assay: Inhibition of D-fructose glycation in human serum albumin model by measuring ketoamine moieties incubated for 26 days by Nitroblue tetrazolium (NBT) reduction assay (reference value: 118.21 nmol/mL); details: 624 h, time 26 day
Albumin [16] = target: T1, Albumin; assay: Inhibition of D-glucose glycation in human serum albumin model by measuring ketoamine moieties incubated for 33 days by Nitroblue tetrazolium (NBT) reduction assay (reference value: 66.64 nmol/mL); details: 792 h, time 33 day
Albumin [17] = target: T1, Albumin; assay: Inhibition of D-glucose glycation in human serum albumin model by measuring absorbance at 279 nm incubated for 33 days by UV spectroscopic analysis (reference value: 1.997); details: 792 h, time 33 day
Albumin [18] = target: T1, Albumin; assay: Inhibition of D-fructose glycation in human serum albumin model by measuring absorbance at 279 nm incubated for 5 days by UV spectroscopic analysis (reference value: 1.056); details: 120 h, time 5 day
Albumin [19] = target: T1, Albumin; assay: Inhibition of D-fructose glycation in human serum albumin model by measuring ketoamine moieties incubated for 5 days by Nitroblue tetrazolium (NBT) reduction assay (reference value: 111.94 nmol/mL); details: 120 h, time 5 day
Albumin [20] = target: T1, Albumin; assay: Inhibition of D-glucose glycation in human serum albumin model by measuring absorbance at 279 nm incubated for 7 days by UV spectroscopic analysis (reference value: […]); details: 168 h, time 7 day
Albumin [21] = target: T1, Albumin; assay: Inhibition of D-glucose glycation in human serum albumin model by measuring ketoamine moieties incubated for 26 days by Nitroblue tetrazolium (NBT) reduction assay (reference value: 28.79 nmol/mL); details: 624 h, time 26 day
Albumin [22] = target: T1, Albumin; assay: Inhibition of D-glucose glycation in human serum albumin model by measuring ketoamine moieties incubated for 14 days by Nitroblue tetrazolium (NBT) reduction assay (reference value: 28.69 nmol/mL); details: 336 h, time 14 day
Albumin [23] = target: T1, Albumin; assay: Inhibition of D-glucose glycation in human serum albumin by measuring absorbance at 279 nm model incubated for 14 days by UV spectroscopic analysis (reference value: 2.302); details: 336 h, time 14 day
Albumin [24] = target: T1, Albumin; assay: Inhibition of D-glucose glycation in human serum albumin model incubated for 14 days by UV spectroscopic analysis relative to control; details: 336 h, time 14 day
Albumin [25] = target: T1, Albumin; assay: Inhibition of D-glucose glycation in human serum albumin model by measuring ketoamine moieties incubated for 3 days by Nitroblue tetrazolium (NBT) reduction assay (reference value: 24.27 nmol/mL); details: 72 h, time 3 day
Albumin [26] = target: T1, Albumin; assay: Inhibition of D-fructose glycation in human serum albumin model by measuring absorbance at 279 nm incubated for 30 days by UV spectroscopic analysis (reference value: 2.323); details: 720 h, time 30 day
Albumin [27] = target: T1, Albumin; assay: Inhibition of D-fructose glycation in human serum albumin model by measuring ketoamine moieties incubated for 33 days by Nitroblue tetrazolium (NBT) reduction assay (reference value: 144.33 nmol/mL); details: 792 h, time 33 day
Albumin [28] = target: T1, Albumin; assay: Inhibition of D-fructose glycation in human serum albumin model by measuring ketoamine moieties incubated for 3 days by Nitroblue tetrazolium (NBT) reduction assay (reference value: 152.64 nmol/mL); details: 72 h, time 3 day
Albumin [29] = target: T1, Albumin; assay: Inhibition of D-glucose glycation in human serum albumin model by measuring absorbance at 279 nm incubated for 3 days by UV spectroscopic analysis (reference value: 0.562); details: 72 h, time 3 day
Albumin [30] = target: T1, Albumin; assay: Inhibition of D-glucose glycation in human serum albumin model by measuring absorbance at 279 nm incubated for 5 days by UV spectroscopic analysis (reference value: 0.741); details: 120 h, time 5 day
Albumin [31] = target: T1, Albumin; assay: Inhibition of D-fructose glycation in human serum albumin model by measuring ketoamine moieties incubated for 30 days by Nitroblue tetrazolium (NBT) reduction assay (reference value: 128.71 nmol/mL); details: 720 h, time 30 day
Albumin [32] = target: T1, Albumin; assay: Inhibition of D-fructose glycation in human serum albumin model by measuring ketoamine moieties incubated for 7 days by Nitroblue tetrazolium (NBT) reduction assay (reference value: 125.33 nmol/mL); details: 168 h, time 7 day

T1 sequence (P02768 whole entry): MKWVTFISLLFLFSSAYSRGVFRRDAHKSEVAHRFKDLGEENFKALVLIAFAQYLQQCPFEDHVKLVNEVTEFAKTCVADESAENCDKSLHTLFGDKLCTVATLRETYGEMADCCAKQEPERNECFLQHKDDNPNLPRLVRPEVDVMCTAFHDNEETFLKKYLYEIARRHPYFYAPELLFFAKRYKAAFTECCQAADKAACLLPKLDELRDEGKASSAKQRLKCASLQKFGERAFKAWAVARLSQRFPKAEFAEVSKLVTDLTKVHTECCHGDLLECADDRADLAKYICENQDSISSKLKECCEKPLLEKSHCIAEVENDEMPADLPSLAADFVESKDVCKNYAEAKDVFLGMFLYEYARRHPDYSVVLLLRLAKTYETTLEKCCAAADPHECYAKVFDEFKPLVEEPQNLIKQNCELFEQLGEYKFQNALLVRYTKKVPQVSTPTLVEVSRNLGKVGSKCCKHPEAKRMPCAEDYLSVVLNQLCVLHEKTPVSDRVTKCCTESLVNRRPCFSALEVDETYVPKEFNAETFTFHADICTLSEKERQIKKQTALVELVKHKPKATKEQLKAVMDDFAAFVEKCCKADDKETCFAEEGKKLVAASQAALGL

- OD (Albumin [1]): 2.274
- OD (Albumin [2]): 0.756
- Activity (Albumin [3]): 24.69 nmol/mL
- inhibition (INH) (Albumin [4]): 27.77%
- OD (Albumin [5]): 2.173
- inhibition (INH) (Albumin [6]): 1.59%
- OD (Albumin [7]): 1.872
- inhibition (INH) (Albumin [8]): 52.1%
- Activity (Albumin [9]): 17.43 nmol/mL
- Activity (Albumin [10]): 124.63 nmol/mL
- OD (Albumin [11]): 0.487
- OD (Albumin [12]): 2.127
- Activity (Albumin [13]): 19.93 nmol/mL
- OD (Albumin [14]): 1.654
- Activity (Albumin [15]): 113.02 nmol/mL
- Activity (Albumin [16]): 36.79 nmol/mL
- OD (Albumin [17]): 1.853
- OD (Albumin [18]): 1.024
- Activity (Albumin [19]): 105.35 nmol/mL
- OD (Albumin [20]): 0.609
- Activity (Albumin [21]): 27.61 nmol/mL
- Activity (Albumin [22]): 25.34 nmol/mL
- OD (Albumin [23]): 1.662
- inhibition (INH) (Albumin [24]): 41.84%
- Activity (Albumin [25]): 20.51 nmol/mL
- OD (Albumin [26]): 1.866
- Activity (Albumin [27]): 143.12 nmol/mL
- Activity (Albumin [28]): 144.52 nmol/mL
- OD (Albumin [29]): 0.562
- OD (Albumin [30]): 0.684
- Activity (Albumin [31]): 123.84 nmol/mL
- Activity (Albumin [32]): 119.64 nmol/mL
SMILES: NCCC(=O)N[C@@H](Cc1cnc[nH]1)C(=O)O [CARNOSINE]
